Reference: US9526785B2, “Pharmaceuticals for oral delivery” (Enteris BioPharma, Inc., priority 2013, dated 2016)
Read-outs that look alike come from different tables or passages of the source.

Experiment: Tigecycline plasma PK and % F after intraduodenal (ID) injection in anesthetized rats
Format: in vivo, Sprague-Dawley Rats
Settings: for AUC(0-t) / Tmax / bioavailability / Cmax: female, Sprague-Dawley, rat, plasma; for bioavailability: read-out: % F, mean
Experimental: Animals weighed approximately 250 g at the time of testing. Rats were fasted overnight (with water available), prior to dosing.
Intravenous (IV) doses were administered as a bolus injection into the left carotid […] at a dose volume of 1.6 mL/kg. Intraduodenal doses were administered as bolus injections into the duodenum at a dose volume of 1.2 mL/kg.
An additional study was conducted exploring the effect of formulation pH at constant CA and LLC concentrations (RA867).
Female rats were maintained in groups of 3 per polycarbonate (or equivalent) shoebox cage with fresh wood chip bedding at 20-22° C. under a 12 hour on/off light:dark cycle. […] After the rats went limp they were injected intraperitoneally (IP) with 0.1 mL ketamine/xylazine. The anesthetic state was maintained by IP injection of ketamine/xylazine on an as needed basis. Animal weights were determined post-anesthesia induction.
An indwelling catheter for blood sampling was inserted into the right carotid artery by exposing the trachea with Mayo scissors, clamping the bottom of the […] and tying off the top with surgical suture. The area between was nicked with small sharp scissors and Intramedic polyethylene tubing was inserted into the nicked area. The artery with the tubing was sealed with suture to prevent leakage. A 23-gauge Intramedic Luer Stub Adapter was inserted into the cannula and attached to a 3 way valve which was connected to a 3 cc syringe filled with 0.9% normal saline and a 1 cc syringe filled with 5 U/mL sodium heparin for blood sampling.
An intraduodenal injection was utilized to mimic oral delivery of an enterically coated capsule or tablet formulation. […] Mayo scissors were used to expose the duodenum and the site of administration was identified by measuring 5 cm from the junction of the stomach and the duodenum towards the jejunum. The measured site was identified by inserting a small piece of surgical suture underneath the site for injection. After the formulation was injected, the abdominal cavity was closed with surgical clips.
Blood samples were collected in tubes containing 20 μL 180 mM EDTA. The tubes were maintained on ice and then centrifuged at approximately 3000 rpm at 4° C. for 5 minutes. Plasma was harvested immediately after centrifugation of the samples and stored at −20° C. pending analysis.
Minocycline (VWR international) was used as an internal standard. Sample processing/clean-up of plasma samples was carried out offline by protein precipitation with acidified acetonitrile.
The HPLC system consisted of Shimadzu SIL-HTc HPLC system equipped with dual Shimadzu LC-10ADvp isopumps, a Shimadzu CTO-10ASvp column temperature controller and a Shimadzu SPD-10Avp variable wavelength detector. […] Mobile phase A consisted of 23 mM phosphate buffer pH 2.5 with 6 mM 1-octanesulfonic acid, while mobile phase B consisting of pure acetonitrile. […] The mobile phase flow rate was 1.2 mL/min. Detection was performed using the SPD-10Avp variable wavelength detector set at 350 nm, with a sensitivity of 0.001 aufs.
The samples were then centrifuged under refrigeration at 13 k rpm for 30 minutes. The supernatant was taken and the liquid was removed to dryness in a turbovap. The samples were then reconstituted in 55 μL 0.1M phosphate buffer, pH 3.8. Samples were maintained at 10° C. while on the autoinjector during sequence. The injection volume was 50 μL. The unknown concentration in rat plasma samples was determined by interpolation of the peak area ratios of analyte:internal standard versus the ratio of their nominal concentrations into the regression line obtained from calibration standards spiked in pooled rat plasma. No regression weighting was used for the calculations. […] The calibration curve covered the range of 0.05 μg/mL to 5.0 μg/mL.

[1] = ID, 400 mM CA (pH 3.5), 26 mM LLC, 4.8 mg/kg (RA851), parent Tigecycline peak only, 4.8 mg/kg
[2] = ID, 400 mM CA (pH 3.5), 26 mM LLC, 9.0 mg/kg (RA853), parent Tigecycline peak only, 9 mg/kg
[3] = 4.6 mg/kg, RA861, ID, 26 mM LLC alone, mean dose 4.6 mg/kg
[4] = 4.6 mg/kg, RA861, ID, 400 mM CA/26 mM LLC, mean dose 4.6 mg/kg
[5] = 4.8 mg/kg, ID, PBS, 4.8 mg/kg (RA851)
[6] = 4.8 mg/kg, RA861, ID, 400 mM CA alone, mean dose 4.8 mg/kg
[7] = 4.8 mg/kg, pH 3.5, ID, 100 mM CA (pH 3.5), 26 mM LLC, 4.8 mg/kg (RA851)
[8] = 4.8 mg/kg, pH 3.5, ID, 400 mM CA (pH 3.5), 26 mM LLC, 4.8 mg/kg (RA851), parent Tigecycline peak only
[9] = 4.8 mg/kg, pH 3.5, RA867, ID, 400 mM CA/26 mM LLC pH 3.5, 4.8 mg/kg
[10] = 4.8 mg/kg, pH 6, RA867, ID, 400 mM CA/26 mM LLC pH 6.0, 4.8 mg/kg
[11] = 9 mg/kg, ID, PBS, 9.0 mg/kg (RA853), without animal RA853-6
[12] = 9 mg/kg, pH 3.5, ID, 100 mM CA (pH 3.5), 26 mM LLC, 9.0 mg/kg (RA853)
[13] = 9 mg/kg, pH 3.5, ID, 400 mM CA (pH 3.5), 26 mM LLC, 9.0 mg/kg (RA853), parent Tigecycline peak only

For `CN(C)c1cc(NC(=O)CNC(C)(C)C)c(O)c2c1C[C@H]1C[C@H]3[C@H](N(C)C)C(O)=C(C(N)=O)C(=O)[C@@]3(O)C(O)=C1C2=O` [Tigecycline], the “increase of tigecycline plasma concentrations” value (ID, 26 mM LLC and 100 mM citrate pH 3.5, versus PBS) was 7-9 x, the “Cmax, Mean” value (ID, 100 mM CA (pH 3.5), 26 mM LLC, 4.8 mg/kg (RA851), 4.8 mg/kg) was 714 ng/mL and the “% F, Mean” value (ID, 100 mM CA (pH 3.5), 26 mM LLC, 4.8 mg/kg (RA851), relative to 0.64 mg/kg IV) was 10.85%. The “Tmax, Mean” value (ID, 100 mM CA (pH 3.5), 26 mM LLC, 9.0 mg/kg (RA853), 9 mg/kg) was 16.667 min, the “% F, Mean” value (ID, 100 mM CA (pH 3.5), 26 mM LLC, 9.0 mg/kg (RA853), relative to 12 mg/kg IV) was 11.36% and the “increase of mean % F” value (ID, 100 mM CA pH 3.5, 26 mM LLC, versus PBS) was 4-7 fold. The “Cmax, Mean” value [1] was 792 ng/mL, the “Tmax, Mean” value [1] was 16.7 min and the “AUC(0-t), Mean” value [2] was 137.6 µg·min/mL. For the same compound, the “Cmax, Mean” value [2] was 2492 ng/mL, the “AUC(0-t), Mean” value (ID, PBS, 9.0 mg/kg (RA853), without animal RA853-6, 9 mg/kg) was 15.7 µg·min/mL and the “% F, Mean” value (ID, PBS, 9.0 mg/kg (RA853), without animal RA853-6, relative to 12 mg/kg IV) was 2.76%. It also gave an AUC(0-t) [3] of 68 ng·h/mL, a Tmax [3] of 18 min and a bioavailability [3] of 1%. For the same compound, the Cmax (4.6 mg/kg, RA861, ID, 26 mM LLC alone, mean dose 4.6 mg/kg, read-out: Cmax, mean) was 64.1 ng/mL, the AUC(0-t) [4] was 139 ng·h/mL and the Tmax [4] was 10 min. It also gave a bioavailability [4] of 2.1%, a Cmax (4.6 mg/kg, RA861, ID, 400 mM CA/26 mM LLC, mean dose 4.6 mg/kg, read-out: Cmax, mean) of 30.6 ng/mL and an AUC(0-t) [5] of 116 ng·h/mL. The Tmax [5] was 90 min, the Cmax (4.8 mg/kg, ID, PBS, 4.8 mg/kg (RA851), read-out: Cmax, Mean) was 100 ng/mL and the AUC(0-t) [6] was 17.5 ng·h/mL. For the same compound, the Tmax [6] was 20 min, the bioavailability [6] was 0.3% and the Cmax (4.8 mg/kg, RA861, ID, 400 mM CA alone, mean dose 4.8 mg/kg, read-out: Cmax, mean) was 11.7 ng/mL. The AUC(0-t) [7] was 823 ng·h/mL, the Tmax [7] was 20 min and the Cmax (4.8 mg/kg, pH 3.5, ID, 100 mM CA (pH 3.5), 26 mM LLC, 4.8 mg/kg (RA851), read-out: Cmax, Mean) was 710 ng/mL. The AUC(0-t) [8] was 1430 ng·h/mL, the Tmax [8] was 17 min and the Cmax (4.8 mg/kg, pH 3.5, ID, 400 mM CA (pH 3.5), 26 mM LLC, 4.8 mg/kg (RA851), parent Tigecycline peak only, read-out: Cmax, Mean) was 790 ng/mL. For the same compound, the AUC(0-t) [9] was 537 ng·h/mL, the Tmax [9] was 12 min and the bioavailability [9] was 7.7%. The Cmax (4.8 mg/kg, pH 3.5, RA867, ID, 400 mM CA/26 mM LLC pH 3.5, 4.8 mg/kg, read-out: Cmax, mean) was 488 ng/mL, the AUC(0-t) [10] was 385 ng·h/mL and the Tmax [10] was 43 min. For the same compound, the bioavailability [10] was 5.5%, the Cmax (4.8 mg/kg, pH 6, RA867, ID, 400 mM CA/26 mM LLC pH 6.0, 4.8 mg/kg, read-out: Cmax, mean) was 278 ng/mL and the AUC(0-t) [11] was 262 ng·h/mL. The Tmax [11] was 30 min, the Cmax (9 mg/kg, ID, PBS, 9.0 mg/kg (RA853), without animal RA853-6, read-out: Cmax, Mean) was 220 ng/mL and the AUC(0-t) [12] was 1280 ng·h/mL. The Tmax [12] was 17 min, the Cmax (9 mg/kg, pH 3.5, ID, 100 mM CA (pH 3.5), 26 mM LLC, 9.0 mg/kg (RA853), read-out: Cmax, Mean) was 2060 ng/mL and the AUC(0-t) [13] was 2300 ng·h/mL. For the same compound, the Tmax [13] was 10 min, the Cmax (9 mg/kg, pH 3.5, ID, 400 mM CA (pH 3.5), 26 mM LLC, 9.0 mg/kg (RA853), parent Tigecycline peak only, read-out: Cmax, Mean) was 2490 ng/mL and the AUC(0-t) ([…], RA869, ID, 26 mM LLC only) was 91.7 ng·h/mL. For the same compound, the Tmax ([…], RA869, ID, 26 mM LLC only) was 10 min and the bioavailability ([…], RA869, ID, 26 mM LLC only, […]) was 8.9%.
